{"source": "ChEMBL document CHEMBL4706484", "about": "“Apigenin-rivastigmine hybrids as multi-target-directed liagnds for the treatment of Alzheimer's disease” (Eur J Med Chem, 2020)", "key": {"[1]": {"assay": "Metal chelating activity assessed as Al3+-compound complex formation by measuring absorption wavelength at 37.5 uM in presence of 37.5 uM AlCl3 by UV-Vis spectrophotometric analysis"}, "[2]": {"test_system": "Mus musculus", "assay": "Cognitive enhancing effect in scopolamine-induced Kunming mouse model of memory impairment assessed as effect on total arm entries at 5 to 20 mg/kg by Y-maze test", "type": "functional, organism-based", "conditions": "dose 5-20 mg/kg"}, "[3]": {"assay": "Drug metabolism in rat intestine assessed as metabolite formation by UPLC-MS/MS analysis", "type": "ADME, tissue-based"}, "[4]": {"species": "Danio rerio", "assay": "Protection against amyloid beta (1 to 40 residues)-induced vascular injury in transgenic zebrafish assessed as vascular injury rate at 12.5 ug/ml (reference value: 73.3 %)", "type": "functional", "conditions": "dose 12.5 µg/ml"}, "[5]": {"species": "Danio rerio", "assay": "Antialzheimer activity against 3 dpf zebrafish model of AlCl3-induced AD assessed as increase in motility distance", "type": "functional, organism-based"}, "[6]": {"molecular_target": "T1, Cholinesterase (Homo sapiens, UniProt P06276)", "T1 sequence (P06276 whole entry)": "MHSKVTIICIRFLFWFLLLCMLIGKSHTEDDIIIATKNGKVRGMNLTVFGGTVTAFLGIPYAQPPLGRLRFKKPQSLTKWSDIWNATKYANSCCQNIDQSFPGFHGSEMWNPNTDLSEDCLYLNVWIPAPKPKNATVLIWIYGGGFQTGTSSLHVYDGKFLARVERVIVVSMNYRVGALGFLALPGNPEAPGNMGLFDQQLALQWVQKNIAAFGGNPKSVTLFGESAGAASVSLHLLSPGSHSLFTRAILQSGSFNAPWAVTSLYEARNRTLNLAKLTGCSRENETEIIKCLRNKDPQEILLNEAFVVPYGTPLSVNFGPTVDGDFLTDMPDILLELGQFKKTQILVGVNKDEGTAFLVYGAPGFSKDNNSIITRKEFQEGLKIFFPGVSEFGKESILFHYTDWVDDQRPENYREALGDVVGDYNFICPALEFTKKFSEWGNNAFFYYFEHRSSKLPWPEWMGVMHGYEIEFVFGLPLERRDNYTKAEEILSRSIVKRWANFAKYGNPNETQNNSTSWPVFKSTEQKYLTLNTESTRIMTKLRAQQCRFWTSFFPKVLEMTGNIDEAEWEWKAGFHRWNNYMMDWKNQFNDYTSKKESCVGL", "assay": "Pseudo-irreversible inhibition of human serum BChE assessed as enzyme recovery activity at 0.1 times IC50 using diluted compound relative to control", "type": "cell-free", "design": "scale not given: the % may be the effect or the level left"}, "[7]": {"assay": "Metal chelating activity assessed as compound-Cu2+ complex stoichiometry ratio of 1:1 at 37.5 uM in presence of CuCl2 by UV-visible spectrophotometric analysis"}, "[8]": {"test_system": "Mus musculus", "assay": "Reversal of scopolamine-induced Kunming mouse model of memory impairment assessed as spontaneous alteration at 5 mg/kg by Y-maze test", "type": "functional, organism-based"}, "[9]": {"assay": "Acute toxicity in 2 dpf zebrafish assessed as maximum non-lethal concentration measured after 3 days", "design": "species or system Danio rerio", "conditions": "in vivo, time 3 day"}, "[10]": {"assay": "Acute toxicity in Kunming mouse assessed as hypokinesia at 2000 mg/kg", "type": "organism-based", "conditions": "in vivo"}, "[11]": {"species": "Danio rerio", "assay": "Antialzheimer activity against 3 dpf zebrafish model of AlCl3-induced AD assessed as motility by measuring efficacy on speed change at 12.5 ug/ml relative to control", "type": "functional", "conditions": "dose 12.5 µg/ml"}, "[12]": {"assay": "Permeability of the compound in PBS/EtOH (70:30) at 100 ug/ml by PAMPA-BBB assay", "type": "ADME", "conditions": "dose 100 µg/ml, read-out: permeability"}, "[13]": {"species": "Danio rerio", "assay": "Antialzheimer activity against 3 dpf zebrafish model of AlCl3-induced AD assessed as motility by measuring efficacy on speed change at 4.2 ug/ml relative to control", "type": "functional", "conditions": "dose 4.2 µg/ml"}, "[14]": {"test_system": "PC-12", "assay": "Neuroprotective activity against H2O2-induced cell injury in rat PC-12 cells assessed as cell viability at 5 uM preincubated for 2 hrs followed by H2O2 addition and measured after 24 hrs by MTT assay (reference value: 53.8 %)", "type": "functional", "conditions": "time 26 hrs, read-out: Activity"}, "[15]": {"molecular_target": "T1, Cholinesterase", "assay": "Inhibition of human serum BChE using acetylthiocholine iodide as substrate measured after 15 mins by Ellman's method", "type": "cell-free"}, "[16]": {"assay": "Acute toxicity in 2 dpf zebrafish assessed as small or misshapen eyes at 1.39 to 12.5 ug/ml measured after 3 days", "design": "species or system Danio rerio", "conditions": "in vivo, 72 h, dose 1.39-12.5 µg/ml, time 3 day"}, "[17]": {"assay": "Acute toxicity in 2 dpf zebrafish assessed as abnormal liver size at 1.39 to 12.5 ug/ml measured after 3 days", "design": "species or system Danio rerio", "conditions": "in vivo, 72 h, dose 1.39-12.5 µg/ml, time 3 day"}, "[18]": {"molecular_target": "Amyloid-beta precursor protein (Homo sapiens) (UniProt P05067)", "sequence (P05067 whole entry)": "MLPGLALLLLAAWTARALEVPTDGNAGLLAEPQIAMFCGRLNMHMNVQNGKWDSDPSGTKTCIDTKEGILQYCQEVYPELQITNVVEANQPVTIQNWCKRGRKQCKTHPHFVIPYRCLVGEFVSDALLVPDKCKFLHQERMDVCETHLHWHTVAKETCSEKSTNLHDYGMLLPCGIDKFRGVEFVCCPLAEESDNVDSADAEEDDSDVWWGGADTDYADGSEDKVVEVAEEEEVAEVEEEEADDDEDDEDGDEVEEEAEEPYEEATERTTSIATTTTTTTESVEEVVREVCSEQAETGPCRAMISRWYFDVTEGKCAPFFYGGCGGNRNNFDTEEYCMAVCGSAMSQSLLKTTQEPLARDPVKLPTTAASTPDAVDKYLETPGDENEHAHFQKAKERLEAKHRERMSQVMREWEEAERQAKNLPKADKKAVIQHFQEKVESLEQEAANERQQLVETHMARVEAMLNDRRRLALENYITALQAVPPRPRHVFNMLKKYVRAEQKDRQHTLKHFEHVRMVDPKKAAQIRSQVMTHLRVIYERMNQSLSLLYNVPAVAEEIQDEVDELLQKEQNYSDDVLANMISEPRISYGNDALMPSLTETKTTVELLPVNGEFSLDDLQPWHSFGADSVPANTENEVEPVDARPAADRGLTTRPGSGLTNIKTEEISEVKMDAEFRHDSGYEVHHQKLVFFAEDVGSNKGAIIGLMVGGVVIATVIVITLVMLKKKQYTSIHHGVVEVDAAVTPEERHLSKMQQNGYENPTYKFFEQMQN", "assay": "Inhibition of self-induced amyloid beta (1 to 42) (unknown origin) aggregation at 25 uM by ThT fluorescence assay relative to control"}, "[19]": {"molecular_target": "T1, Cholinesterase", "assay": "Pseudo-irreversible inhibition of human serum BChE assessed as enzyme recovery activity at IC50 using diluted compound relative to control", "type": "cell-free", "design": "scale not given: the % may be the effect or the level left"}, "[20]": {"molecular_target": "T1, Cholinesterase", "assay": "Pseudo-irreversible inhibition of human serum BChE assessed as enzyme recovery activity at 0.1 times IC50 measured at 240 mins using diluted compound relative to basal level", "type": "cell-free", "design": "scale not given: the % may be the effect or the level left"}, "[21]": {"species": "Danio rerio", "assay": "Antialzheimer activity against 3 dpf zebrafish model of AlCl3-induced AD assessed as motility by measuring change in speed at 12.5 ug/ml (reference value: 1.05 mm/s)", "type": "functional", "conditions": "dose 12.5 µg/ml"}, "[22]": {"species": "Danio rerio", "assay": "Antialzheimer activity against 3 dpf zebrafish model of AlCl3-induced AD assessed as motility by measuring efficacy on speed change at 1.4 ug/ml relative to control", "type": "functional", "conditions": "dose 1.4 µg/ml"}, "[23]": {"assay": "Metal chelating activity assessed as Zn2+-compound complex formation at 37.5 uM in presence of 37.5 uM ZnCl2 by UV-Vis spectrophotometric analysis"}, "[24]": {"test_system": "SH-SY5Y", "assay": "Neuroprotective activity against amyloid beta (1 to 42 residues)-induced cell injury in human SH-SY5Y cells assessed as cell viability at 5 uM preincubated for 2 hrs followed by H2O2 addition and measured after 24 hrs by MTT assay (reference value: 52.3 %)", "type": "functional", "conditions": "time 26 hrs, read-out: Activity"}, "[25]": {"assay": "Acute toxicity in 2 dpf zebrafish assessed as abnormal trunk at 1.39 to 12.5 ug/ml measured after 3 days", "design": "species or system Danio rerio", "conditions": "in vivo, 72 h, dose 1.39-12.5 µg/ml, time 3 day"}, "[26]": {"assay": "Acute toxicity in 2 dpf zebrafish assessed as abnormal tail at 1.39 to 12.5 ug/ml measured after 3 days", "design": "species or system Danio rerio", "conditions": "in vivo, 72 h, dose 1.39-12.5 µg/ml, time 3 day"}, "[27]": {"molecular_target": "T1, Cholinesterase", "assay": "Pseudo-irreversible inhibition of human serum BChE assessed as enzyme recovery activity at IC50 using undiluted compound relative to control", "type": "cell-free", "design": "scale not given: the % may be the effect or the level left"}, "[28]": {"assay": "Disaggregation of Copper-induced amyloid beta (1 to 42) (unknown origin) preformed fibrils at 25 uM by ThT fluorescence assay relative to control"}, "[29]": {"assay": "Acute toxicity in 2 dpf zebrafish assessed as small or misshapen brain at 1.39 to 12.5 ug/ml measured after 3 days", "type": "tissue-based, Danio rerio", "conditions": "in vivo, 72 h, dose 1.39-12.5 µg/ml, time 3 day"}, "[30]": {"assay": "Acute toxicity in 2 dpf zebrafish assessed as short or misshapen jaw at 1.39 to 12.5 ug/ml measured after 3 days", "design": "species or system Danio rerio", "conditions": "in vivo, 72 h, dose 1.39-12.5 µg/ml, time 3 day"}, "[31]": {"assay": "Inhibition of copper-induced amyloid beta (1 to 42) (unknown origin) aggregation measured after 24 hrs by TEM analysis"}, "[32]": {"assay": "Acute toxicity in 2 dpf zebrafish assessed as abnormal notochord at 1.39 to 12.5 ug/ml measured after 3 days", "design": "species or system Danio rerio", "conditions": "in vivo, 72 h, dose 1.39-12.5 µg/ml, time 3 day"}, "[33]": {"test_system": "Mus musculus", "assay": "Antialzheimer activity in scopolamine-induced Kunming mouse model of memory impairment assessed as Q30 bases ratio (raw data) in brain hippocampus at 10 mg/kg by illumina sequencing method (reference value: 93.53 %)", "type": "functional"}, "[34]": {"assay": "Acute toxicity in 2 dpf zebrafish assessed as death at 1.25 to 20 ug/ml measured after 3 days", "design": "species or system Danio rerio", "conditions": "in vivo, 72 h, dose 1.25-20 µg/ml, time 3 day"}, "[35]": {"assay": "Acute toxicity in 2 dpf zebrafish assessed as kidney edema at 1.39 to 12.5 ug/ml measured after 3 days", "design": "species or system Danio rerio", "conditions": "in vivo, 72 h, dose 1.39-12.5 µg/ml, time 3 day"}, "[36]": {"species": "Danio rerio", "assay": "Antialzheimer activity against 3 dpf zebrafish model of AlCl3-induced AD assessed as change in motility distance at 4.2 ug/ml (reference value: 5204 mm)", "type": "functional", "conditions": "dose 4.2 µg/ml"}, "[37]": {"assay": "Acute toxicity in 2 dpf zebrafish assessed as abnormal pigmentation at 1.39 to 12.5 ug/ml measured after 3 days", "design": "species or system Danio rerio", "conditions": "in vivo, 72 h, dose 1.39-12.5 µg/ml, time 3 day"}, "[38]": {"assay": "Acute toxicity in 2 dpf zebrafish assessed as death at 1.39 to 12.5 ug/ml measured after 3 days", "design": "species or system Danio rerio", "conditions": "in vivo, 72 h, dose 1.39-12.5 µg/ml, time 3 day"}, "[39]": {"molecular_target": "Amyloid-beta precursor protein (Homo sapiens) (UniProt P05067)", "assay": "Inhibition of self-induced amyloid beta (1 to 42) (unknown origin) aggregation at 25 uM measured after 24 hrs by TEM analysis"}, "[40]": {"assay": "Metal chelating activity assessed as Cu2+-compound complex formation by measuring absorption wavelength at 37.5 uM in presence of 37.5 uM CuCl2 by UV-Vis spectroscopic analysis"}}, "note": "Activity calls are given as the source filed them. The rule behind the calls is not given here."}
{"compound": "CCN(C)C(=O)Oc1ccc(-c2cc(=O)c3c(O)cc(OC(=O)N(C)CC)cc3o2)cc1", "values": [{"measurement": "Activity", "setting": "[1]", "result": 384, "unit": "nm"}, {"measurement": "Activity", "setting": "[2]", "result": "inactive"}, {"measurement": "Drug metabolism", "setting": "[3]", "result": "Metabolite_Detected"}, {"measurement": "Activity", "setting": "[4]", "result": 27, "unit": "%"}, {"measurement": "Activity", "setting": "[5]", "result": "Dose-dependent effect"}, {"measurement": "Activity", "setting": "[6]", "result": 44.8, "unit": "%"}, {"measurement": "Activity", "setting": "[7]", "result": "Active"}, {"measurement": "Activity", "setting": "[8]", "result": "inactive"}, {"measurement": "MNTC at 72 h", "setting": "[9]", "result": 12.5, "unit": "µg/mL"}, {"measurement": "Activity", "setting": "[10]", "result": "Toxic"}, {"measurement": "Efficacy", "setting": "[11]", "result": 87, "unit": "%"}, {"measurement": "Papp at 100 ug/ml", "setting": "[12]", "result": 15.5, "unit": "×10⁻⁶ cm/s"}, {"measurement": "Efficacy", "setting": "[13]", "result": 72, "unit": "%"}, {"measurement": "viability at 5 µM", "setting": "[14]", "result": 68.6, "unit": "%"}, {"measurement": "IC50", "setting": "[15]", "result": 16.1, "unit": "µM"}, {"measurement": "Activity", "setting": "[16]", "result": "Non-Toxic"}, {"measurement": "Activity", "setting": "[17]", "result": "Non-Toxic"}, {"measurement": "inhibition", "setting": "[18]", "result": 77.9, "unit": "%"}, {"measurement": "Activity", "setting": "[19]", "result": 54.1, "unit": "%"}, {"measurement": "Activity", "setting": "[20]", "result": 71.7, "unit": "%"}, {"measurement": "Activity", "setting": "[21]", "result": 2.17, "unit": "millimeter/sec"}, {"measurement": "Efficacy", "setting": "[22]", "result": 58, "unit": "%"}, {"measurement": "Activity", "setting": "[23]", "result": "inactive"}, {"measurement": "viability at 5 µM", "setting": "[24]", "result": 63.9, "unit": "%"}, {"measurement": "Activity", "setting": "[25]", "result": "Non-Toxic"}, {"measurement": "Activity", "setting": "[26]", "result": "Non-Toxic"}, {"measurement": "Activity", "setting": "[27]", "result": 50.6, "unit": "%"}, {"measurement": "Activity", "setting": "[28]", "result": 64.6, "unit": "%"}, {"measurement": "Activity", "setting": "[29]", "result": "Non-Toxic"}, {"measurement": "Activity", "setting": "[30]", "result": "Non-Toxic"}, {"measurement": "inhibition", "setting": "[31]", "result": "Active"}, {"measurement": "Activity", "setting": "[32]", "result": "Non-Toxic"}, {"measurement": "Activity", "setting": "[33]", "result": 92.76, "unit": "%"}, {"measurement": "Activity", "setting": "[34]", "result": "Non-Toxic"}, {"measurement": "Activity", "setting": "[35]", "result": "Non-Toxic"}, {"measurement": "Activity", "setting": "[36]", "result": 6562, "unit": "mm"}, {"measurement": "Activity", "setting": "[37]", "result": "Non-Toxic"}, {"measurement": "Activity", "setting": "[38]", "result": "Non-Toxic"}, {"measurement": "inhibition", "setting": "[39]", "result": "Active"}, {"measurement": "Activity", "setting": "[40]", "result": 398, "unit": "nm"}]}
